COc1cc(-c2cc(=O)c3c(O)cc(O)cc3o2)cc(OC)c1O
solubility (mole fraction)
Details | 288.15 K | 293.16 K | 298.15 K | 303.15 K | 308.16 K | 313.18 K | 318.15 K
in ethanol | 5.94e-06 | 8.85e-06 | 1.26e-05 | 1.72e-05 | 2.19e-05 | 3e-05 | 3.83e-05
in water | 5e-10 | 1e-09 | 1.4e-09 | 2.1e-09 | 3.5e-09 | 5.6e-09 | 8.1e-09

— BigSolDB 2.1
